Test systems include HL-60(TB) leukemia; SF-539 CNS; OVCAR-5 ovarian; T-47D breast; NCI-H460 lung; DU-145 prostate; SR leukemia; MALME-3M melanoma; UACC-257 melanoma; A498 renal.
Holding throughout (experiment): DTP human tumour cell line panel, 48 h

One may read the GI50 as the concentration at which growth is held to half of that of the control. In general, TGI refers to the concentration giving total growth inhibition. A lower TGI goes with more potent growth arrest.

The structures appear in SMILES notation.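 Compound exposure: 48 hours, 5 concentrations, 96-well plates. GI50 is the concentration that inhibits growth by half. Definition used: TGI = concentration required for complete inhibition of growth.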

For the molecule `CN(C)CC(=O)N1CCC(c2ccc(NC(=O)c3ncc(C#N)[nH]3)c(C3=CCCCC3)c2)CC1`, the GI50 in the assay on HL-60(TB) leukemia is 2.99 µM; with SF-539 CNS, 3.5 µM; in the assay with OVCAR-5 ovarian it was 10.8 µM; in the assay on T-47D breast it was 11.9 µM; in the assay on NCI-H460 lung, 7.83 µM; in the assay with DU-145 prostate, 12 µM. For the same molecule, the GI50 with SR leukemia was 2.58 µM; in the assay with MALME-3M melanoma, 4.3 µM; with UACC-257 melanoma it was 2.17 µM; in the assay on A498 renal, 9.71 µM. The TGI was determined as 8.86 µM with HL-60(TB) leukemia; 15 µM with SF-539 CNS; 25.2 µM with OVCAR-5 ovarian; 28.8 µM with T-47D breast; 23.4 µM with NCI-H460 lung; 24.6 µM with DU-145 prostate. Also, the TGI is 6.52 µM in the assay with SR leukemia, 16.1 µM in the assay on MALME-3M melanoma, 4.8 µM in the assay with UACC-257 melanoma and 22.4 µM in the assay with A498 renal.

On to `C=CC(=O)N[C@H]1C=C(C)c2c(-c3cnc4ccccc4c3)c3c(N)ncnc3n2C1`, for which the GI50 in the assay on HL-60(TB) leukemia is 29.8 µM; in the assay on SF-539 CNS, 13.3 µM; in the assay on OVCAR-5 ovarian it was 21.2 µM; with T-47D breast, 2.22 µM; in the assay on NCI-H460 lung, 18.1 µM; with DU-145 prostate, 8.05 µM. For the same molecule, the GI50 in the assay on SR leukemia was 18.3 µM; with MALME-3M melanoma it was 11.6 µM; in the assay with UACC-257 melanoma, 13.4 µM; in the assay on A498 renal it was 0.351 µM. The TGI in the assay on HL-60(TB) leukemia was more than 80.4 µM; in the assay with SF-539 CNS, 31.6 µM; in the assay with OVCAR-5 ovarian, 93.3 µM; in the assay with T-47D breast, more than 100 µM; in the assay on NCI-H460 lung, 72.8 µM; in the assay with DU-145 prostate, more than 100 µM. Moreover, the TGI is more than 100 µM with SR leukemia, 25.7 µM in the assay on MALME-3M melanoma, more than 80.4 µM in the assay with UACC-257 melanoma and 3.99 µM with A498 renal.

In the case of `NC(CO)Cc1cnc[nH]1` (stereo unspecified), the GI50 in the assay on HL-60(TB) leukemia, in the assay with SF-539 CNS, in the assay on T-47D breast, with NCI-H460 lung, with SR leukemia and with MALME-3M melanoma was more than 100 µM each time. Also, in the assay with A498 renal, the GI50 was more than 100 µM. Also, the TGI with HL-60(TB) leukemia, with SF-539 CNS, in the assay with OVCAR-5 ovarian, with T-47D breast, with NCI-H460 lung and in the assay on DU-145 prostate was more than 100 µM in each case. Further, the TGI with SR leukemia, with MALME-3M melanoma, with UACC-257 melanoma and in the assay with A498 renal was more than 100 µM each time.

Take `N#Cc1c(NC(=O)c2cccc(C(F)(F)F)c2)sc2c1CCC(=O)C2`: the GI50 is 0.576 µM with HL-60(TB) leukemia; 0.329 µM with SF-539 CNS; 1.14 µM with OVCAR-5 ovarian; 0.297 µM in the assay on T-47D breast; 1.19 µM in the assay with NCI-H460 lung; 3.3 µM in the assay with DU-145 prostate. Further, the GI50 was 0.347 µM in the assay on SR leukemia, 0.326 µM in the assay on MALME-3M melanoma, 0.728 µM in the assay on UACC-257 melanoma and 1.71 µM with A498 renal. The TGI in the assay on HL-60(TB) leukemia was 3.56 µM; in the assay on SF-539 CNS it was 1.23 µM; with OVCAR-5 ovarian, 3.97 µM; with T-47D breast, 1.97 µM; with DU-145 prostate, more than 100 µM; in the assay with SR leukemia, more than 31.8 µM. Also, the TGI in the assay with MALME-3M melanoma was found to be 1.12 µM; in the assay on UACC-257 melanoma, 3.85 µM; in the assay on A498 renal, 5.5 µM.

`CN=C(N)N/N=C(\c1ccccc1)c1ccc(Br)cc1`: the GI50 in the assay on HL-60(TB) leukemia is 0.216 µM; in the assay with SF-539 CNS, 0.218 µM; with OVCAR-5 ovarian, 0.494 µM; in the assay on T-47D breast it was 2.96 µM; in the assay with NCI-H460 lung it was 0.355 µM; in the assay with DU-145 prostate, 0.366 µM. Moreover, the GI50 in the assay on SR leukemia was 0.31 µM; with MALME-3M melanoma, 1.13 µM; in the assay on UACC-257 melanoma, 0.913 µM; with A498 renal, 0.232 µM. Also, the TGI with HL-60(TB) leukemia is 0.567 µM; in the assay on SF-539 CNS it was 0.537 µM; with OVCAR-5 ovarian it was 5.62 µM; in the assay with T-47D breast, 26.7 µM; in the assay with NCI-H460 lung, 9.05 µM; with DU-145 prostate, 10.5 µM. In addition, the TGI with SR leukemia turned out to be 2.42 µM; with MALME-3M melanoma, 4.24 µM; in the assay on UACC-257 melanoma, 12.9 µM; in the assay with A498 renal, 1.01 µM.

With `Cc1nn(-c2ccc(F)cc2)c2ncnc(Nc3ccc(NC(=O)Nc4ccc(Cl)c(C(F)(F)F)c4)cc3)c12`, the GI50 in the assay on HL-60(TB) leukemia is 2.73 µM; with SF-539 CNS, 1.46 µM; with OVCAR-5 ovarian, 2.81 µM; in the assay with T-47D breast it was 1.73 µM; in the assay with NCI-H460 lung, 2.35 µM; with DU-145 prostate, 3.17 µM. Further, the GI50 is 3.07 µM in the assay with SR leukemia, 1.76 µM in the assay with MALME-3M melanoma, 2.25 µM in the assay with UACC-257 melanoma and 2.6 µM in the assay with A498 renal. In addition, the TGI in the assay on HL-60(TB) leukemia was determined as 8.1 µM; in the assay on SF-539 CNS, 3.08 µM; with OVCAR-5 ovarian, 11.9 µM; in the assay on T-47D breast, 5.27 µM; in the assay on NCI-H460 lung, 6.01 µM; with DU-145 prostate, 11.7 µM. Also, the TGI in the assay on SR leukemia is 40.5 µM; in the assay with MALME-3M melanoma, 4.21 µM; in the assay with UACC-257 melanoma, 5.99 µM; in the assay on A498 renal, 7.93 µM.

Turning to `COC1(C(=O)N2Cc3nc(Cl)nc(N[C@H](C)c4cc(N)cc(C(F)(F)F)c4)c3C2)CCOCC1`, the GI50 in the assay with HL-60(TB) leukemia was 22.6 µM; with SF-539 CNS it was 15.2 µM; with OVCAR-5 ovarian it was 18.2 µM; in the assay on T-47D breast, 20.8 µM; in the assay on NCI-H460 lung it was 18.7 µM; in the assay with DU-145 prostate, 31.7 µM. In addition, the GI50 in the assay with SR leukemia is 2.92 µM; in the assay with MALME-3M melanoma, 17.3 µM; in the assay on UACC-257 melanoma, 17.2 µM; with A498 renal, 11.2 µM. The TGI in the assay with HL-60(TB) leukemia was 66.4 µM; with SF-539 CNS, 29.8 µM; with OVCAR-5 ovarian, 58 µM; with T-47D breast, 83.5 µM; with NCI-H460 lung it was 40.9 µM; in the assay with DU-145 prostate it was more than 100 µM. In addition, the TGI in the assay on SR leukemia came to 48.8 µM; in the assay on MALME-3M melanoma, 43 µM; in the assay on UACC-257 melanoma it was 37.3 µM; in the assay on A498 renal, 58.6 µM.

With `CN1CCN(Cc2ccc(C(=O)Nc3cncc(C#Cc4cnc(N)c5ccccc45)c3)cc2C(F)(F)F)CC1`, the GI50 in the assay with HL-60(TB) leukemia was 1.12 µM; with SF-539 CNS, 1.54 µM; in the assay on OVCAR-5 ovarian, 2.67 µM; in the assay with T-47D breast, 11.6 µM; in the assay with NCI-H460 lung, 1.76 µM; in the assay on DU-145 prostate, 1.78 µM. Moreover, the GI50 was 2.09 µM in the assay on SR leukemia, 1.71 µM in the assay with MALME-3M melanoma, 2.14 µM with UACC-257 melanoma and 1.52 µM with A498 renal. Moreover, the TGI was 2.99 µM in the assay with HL-60(TB) leukemia; 2.89 µM in the assay on SF-539 CNS; 6.91 µM in the assay with OVCAR-5 ovarian; 32.2 µM in the assay with T-47D breast; 3.39 µM in the assay on NCI-H460 lung; 3.49 µM in the assay on DU-145 prostate. In addition, the TGI with SR leukemia was determined as 5.17 µM; in the assay with MALME-3M melanoma it was 3.25 µM; with UACC-257 melanoma, 4.34 µM; in the assay on A498 renal it was 3.73 µM.

Take `CCn1c(-c2nonc2N)nc2c(C#CCN)ncc(OCCCN)c21`: the GI50 with HL-60(TB) leukemia, in the assay with SF-539 CNS, in the assay with OVCAR-5 ovarian, in the assay on T-47D breast, with NCI-H460 lung and with DU-145 prostate was more than 25 µM in each case. In addition, the GI50 in the assay on SR leukemia was more than 25 µM; in the assay with MALME-3M melanoma, more than 25 µM; in the assay on UACC-257 melanoma, more than 25 µM; with A498 renal, more than 18.6 µM. Also, the TGI with HL-60(TB) leukemia, with SF-539 CNS, with OVCAR-5 ovarian, in the assay with T-47D breast, with NCI-H460 lung and with DU-145 prostate was more than 25 µM in each case. Also, the concentration for total growth inhibition (TGI) with SR leukemia, in the assay on MALME-3M melanoma, with UACC-257 melanoma and with A498 renal was more than 25 µM each time.

The values are drawn from PubChem BioAssay (NCI).
